{
  "source": "patent EP2050458A1",
  "about": "“IL24 for inducing hyperproliferative or autoimmune cell death” (INSTITUT NATIONAL DE LA SANTE ET DE LA RECHERCHE MEDICALE …, priority 2007, dated 2009)",
  "assay_type_in_all_cases": "cell-based, human",
  "key": {"[1]": {"tested_on": "P-stat3", "assay": "Stat3 phosphorylation (Phospho-Y705 stat3) by western blot and immunostaining in CLL cells", "description": "For pervanadate experiments, fresh CLL cells were preincubated or not with IL2 overnight, then incubated or not with pervanadate 25 µM during 5 min and stimulated or not with IL24 for 10 min and lysed as previously described. Blots were hybridyzed with anti phospho-Tyr 705-STAT3 (B-7) MAb (Tebu-bio), dehybridyzed and reblotted with anti STAT3 MAb (BD Transduction Laboratories).\nStat3 was strongly and stably phosphorylated in cells incubated overnight with IL2 as evidenced by hybridization with an anti Phospho-Y705 stat3 MAb. In contrast, phospho(P)-stat5 disappeared and total stat5 diminished in the cytosol of cells incubated overnight with IL2, presumably due to dimerization and translocation to the nucleus (Paukku et al. Cytokine Growth Factor Rev. 2004. 6:435-55).\nCells were therefore incubated or not for 5 min with […] pervanadate (PV), an inhibitor of protein tyrosine phosphatase activity (Heffetz and Bushkin H. J Biol Chem. 1990. 265:2896-902) and stimulated 10 min with IL24 on cells preincubated or not with IL2. Cytospin and western blot experiments were performed.\nTroglitazone (TG) is an activator of protein-tyrosine phosphatase (PTP)-1B that reduced P-Y705-stat3 and promoted apoptosis in human primary gliomas (Akasaki et al. J Biol Chem. 2005. 281:6165-74). TG was therefore used to determine if it is able to stimulate p53 expression and apoptosis in CLL. […]"}, "[2]": {"tested_on": "CLL B-cells", "assay": "Cell cycle analysis by Propidium Iodide staining and FACS", "conditions": "inhibitor added with IL24 to cells cultured overnight with IL2 (IL2+IL24+inhibitor); vs 3.36 ± 1.3% without inhibitor", "description": "For apoptosis studies, cells were stained either with the Apo 2.7-PE mAb (Beckman-Coulter, Villepinte, France) on ice for 15 min, washed and resuspended on 300 µl of PBS 1X supplemented with 0,1% BSA or with the Annexin V-FITC apoptosis detection kit (Becton Dickinson Biosciences, Le-Pont-de-Claix, France), 1x10^5 cells in 100 µl 1X binding buffer were stained with 5 µl of Annexin V-FITC and 5 µl Propidium Iodide (PI) in the dark for 15 min at room temperature (RT). 400 µl of 1X binding buffer was added before fluorescence-activated cell sorted (FACS) analysis. For cell cycle analysis 1x10^6 cells were washed with cold PBS1X and resuspended in 1ml EtOH 70% and kept on ice for at least 10 min. Cells were then centrifuged and the pellet resuspended in 1ml PBS 1X + RNAse (40 µg) Saint-Quentin Fallavier, France) + Propidium Iodide (18 µl) at room temperature. […]\nFluorescence was measured using a FACScan flow cytometer (BD Biosciences), and data analysis was performed using CellQuest software (BD Biosciences).\nIt was next determined whether the inhibition of thymidine incorporation by B-cells reflected cell cycle block and/or apoptosis. […] The respective percentages of hypodiploid (apoptotic) cells, and of cells in G0-G1, S and G2-M cell cycle phase, and finally of hyperdiploid cells were evaluated (M1 to M4 populations respectively in figure 3a). […]"}, "[3]": {"tested_on": "CLL cells", "assay": "CLL cell survival in culture (trypan blue cell count, cell cycle analysis)", "conditions": "culture for > 30 min", "description": "• Figure 1. rIL24 protects CLL B-cells from death in culture. • a) CLL cells (2x10^6/ml) were cultured in complete medium (•) or with 100 ng/ml rIL24 (▲) every 7 days and cells counted using trypan blue exclusion. % living cells was calculated in each sample (mean ± SD, n=8). b) Cell scatter, Apoptosis shown by Apo 2.7-PE staining, and cell cycle shown by PI staining from one representative sample (CLL 70) at day 21. M1: hypodiploid (apoptotic cells) M2: cells into G0/G1, M3: cells into S+G2+M, M4: hyperdiploid cells. • Figure 2. rIL24 inhibits thymidine incorporation in activated CLL cells. • a) IL24 was added to IL2-cultured cells as in figure 1, one day before (d-1) at the same time (d0) or one day after (d=1) IL2. b) IL24 was added to CLL cells cultured for 24 h with IL2, IL2+CD40-Ligand or anti-IgM+CD40-Ligand. Tymidine (0.5 mCi/ml) was added at day 3 for 15 h. […] Mean ± SD (n=8) of the M1 to M4 populations calculated as in (a) from CLL cells cultured with IL2 (hatched histogram) or IL2 then IL24 (white histogram). […] RNA was extracted at day 3, reverse-transcribed, amplified and analyzed by real-time PCR. […]"}},
  "note": "Where a SMILES comes first, the peptide text is derived from it. The star is where a group is joined. Cbz = O=C(OCc1ccccc1)*; CH2F = FC*",
  "data": [
    {"compound": "Cc1c(C)c2c(c(C)c1O)CCC(C)(COc1ccc(CC3SC(=O)NC3=O)cc1)O2", "note": "(centres unmarked) [TG, Troglitazone]", "values": [
      {"measurement": "total Stat3 expression", "setting": "[1]; IL2-cultured CLL cells", "result": "no effect"}
    ]},
    {"compound": "COC(=O)C[C@H](NC(=O)[C@H](C)NC(=O)[C@@H](NC(=O)OCc1ccccc1)C(C)C)C(=O)CF", "note": "[zvad, ZVAD-fmk] (Cbz-Val-Ala-Asp(OMe)-CH2F)", "values": [
      {"measurement": "cells in S/G2/M", "setting": "[2]", "result": "4.8 ± 1.77", "unit": "%"}
    ]},
    {"compound": "Cc1ccc(C(=O)Cn2c3c(sc2=N)CCCC3)cc1", "note": "[Pft-a, Pifithrin]", "values": [
      {"measurement": "cells in S/G2/M", "setting": "[2]", "result": "6.44 ± 2.2", "unit": "%"}
    ]},
    {"compound": "pervanadate [PV]", "values": [
      {"measurement": "IL24-mediated inhibition of P-Stat3", "setting": "[1]; 5 min with 25 µM pervanadate, then 10 min IL24", "result": "antagonized"},
      {"measurement": "toxicity in culture", "setting": "[3]", "result": "too toxic"}
    ]}
  ]
}
